Data as given in publication PMC12069340 (Frontiers in Cellular and Infection Microbiology, 2025).
pIC50: −log10 of the molar value. Structures can show the parent of a compound that is named as a salt.

What follows are molecules tested on A/PuertoRico/8/1934 (H1N1 H274Y).
Format: cell-based, influenza A virus

SMILES | pIC50
CC(COc1ccccc1)NC(C)C(O)c1ccc(O)cc1 (stereo not drawn) [Isoxsuprine, Isoxsuprine hydrochloride] | 5.03
CCCN(CCc1cccs1)[C@H]1CCc2c(O)cccc2C1 [Rotigotine] | 5.07
O=C(c1ccc(OCCCc2cnc[nH]2)cc1)C1CC1 [Ciproxifan] | 5.23
